For orientation: IC50 means the concentration that gives 50% inhibition. As usually defined, the inhibition is the drop in the measured response relative to a control, in per cent. A low value points to a response near the control.

Molecules are shown by their SMILES.

Holding throughout (format): cell-based
Experiment [1] has as its system KRas-mediated Phosphorylation of ERK in H460 cells. Description: Cisbio HTRF pERK assay, H460 cells. As to conditions: for inhibition at 0.1 µM: Homo sapiens, NCI-H460, H460 cells, single point at 100 nM. For orientation: Time-resolved FRET reads energy transfer from a long-lived donor to a nearby acceptor.
In experiment [2] the test system is KRas-mediated Phosphorylation of ERK in A549 cells. Description: Cisbio HTRF pERK assay, A549 cells. Conditions: for inhibition at 0.1 µM: Homo sapiens, A549, A549 cells, single point at 100 nM.
The test system of experiment [3] is KRas-mediated Phosphorylation of ERK in AsPC-1 cells. Description: Cisbio HTRF pERK assay, AsPC-1 cells. As to conditions: for inhibition at 0.1 µM: Homo sapiens, ASPC1, single point at 100 nM.
Experiment [4] concerns KRas-mediated Phosphorylation of ERK in HCT116 cells. Put plainly: Cisbio HTRF pERK assay, HCT116 cells. Conditions: for inhibition at 0.1 µM: Homo sapiens, HCT-116, HCT116 cells, single point at 100 nM.
The test system of experiment [5] is KRas-mediated Phosphorylation of ERK in H358 cells. Put plainly: Cisbio HTRF pERK assay, H358 cells. As to conditions: for inhibition at 0.1 µM: Homo sapiens, NCI-H358, H358 cells, single point at 100 nM.
In experiment [6] the test system is KRas-mediated Phosphorylation of ERK in H727 cells. Put plainly: Cisbio HTRF pERK assay, H727 cells. Conditions: for inhibition at 0.1 µM: Homo sapiens, NCI-H727, single point at 100 nM.

Turning to `N#Cc1c(N)sc2c(F)ccc(-c3c(Cl)cc4c(N5CC6CCC(C5)N6)nc(OC[C@@]56CCCN5C/C(=C\F)C6)nc4c3F)c12` [Example 179, (S)-4-(4-((1R,5S)-3,8-diazabicyclo[3.2.1]octan-3-yl)-6-chloro-8-fluoro-2-(((S,Z)-2-(fluoromethylene)tetrahydro-1H-pyrrolizin-7a(5H)-yl)methoxy)quinazolin-7-yl)-2-amino-7-fluorobenzo[b]thiophene-3-carbonitrile], the IC50 was found to be 2320 nM in experiment [1] (H460 cells, 3 hrs compound, read-out: Inhibition (HTRF IC50 nM) of KRas-mediated Phosphorylation of ERK, H460); 3140 nM in experiment [2] (A549 cells, 3 hrs compound, read-out: Inhibition (HTRF IC50 nM) of KRas-mediated Phosphorylation of ERK, A549); 116 nM in experiment [3] (3 hrs compound, read-out: Inhibition (HTRF IC50 nM) of KRas-mediated Phosphorylation of ERK, AsPC-1); 3770 nM in experiment [4] (HCT116 cells, 3 hrs compound, read-out: Inhibition (HTRF IC50 nM) of KRas-mediated Phosphorylation of ERK, HCT116); 2610 nM in experiment [5] (H358 cells, 3 hrs compound, read-out: Inhibition (HTRF IC50 nM) of KRas-mediated Phosphorylation of ERK, H358); 6810 nM in experiment [6] (3 hrs compound, read-out: Inhibition (HTRF IC50 nM) of KRas-mediated Phosphorylation of ERK, H727).

Consider `CCc1c(F)ccc2cc(O)cc(-c3c(F)cc4c(N5CCCC6(CCO6)C5)nc(OCC5(CN(C)C)CC5)nc4c3F)c12` (stereo not drawn) [Example 82, 4-(2-((1-((dimethylamino)methyl)cyclopropyl)methoxy)-6,8-difluoro-4-(1-oxa-6-azaspiro[3.5]nonan-6-yl)quinazolin-7-yl)-5-ethyl-6-fluoronaphthalen-2-ol], for which the inhibition at 0.1 µM was 63% in experiment [1]; 33% in experiment [2]; 72% in experiment [3]; 24% in experiment [4]; 80% in experiment [5]; 34% in experiment [6].

As for `CCc1c(F)ccc2cc(O)cc(-c3c(F)cc4c(N5CCCn6nc(C(=O)N7CCN(C)CC7)cc6C5)nc(OC[C@@]56CCCN5C[C@H](F)C6)nc4c3F)c12` [Example 76, (5-(7-(8-ethyl-7-fluoro-3-hydroxynaphthalen-1-yl)-6,8-difluoro-2-(((2R,7aS)-2-fluorohexahydro-1H-pyrrolizin-7a-yl)methoxy)quinazolin-4-yl)-5,6,7,8-tetrahydro-4H-pyrazolo[1,5-a][1,4]diazepin-2-yl)(4-methylpiperazin-1-yl)methanone], the inhibition at 0.1 µM in experiment [1] worked out at 31%; in experiment [2] it was 42%; in experiment [3], 90%; in experiment [4], 16%; in experiment [5] it was 90%; in experiment [6] it was 43%.

Consider `CCc1c(F)ccc2cc(O)cc(-c3c(F)cc4c(N5CCCC6(CCO6)C5)nc(OC[C@@]56CCCN5C[C@H](F)C6)nc4c3F)c12` (stereo partly drawn) [Example 77, 4-(6,8-difluoro-2-(((2R,7aS)-2-fluorotetrahydro-1H-pyrrolizin-7a(5H)-yl)methoxy)-4-(1-oxa-6-azaspiro[3.5]nonan-6-yl)quinazolin-7-yl)-5-ethyl-6-fluoronaphthalen-2-ol], for which the inhibition at 0.1 µM came out at 86% in experiment [1]; 82% in experiment [2]; 87% in experiment [3]; 45% in experiment [4]; 96% in experiment [5]; 66% in experiment [6].

As for `CCc1c(F)ccc2cc(O)cc(-c3ccc4c(N5CCCC6(CCO6)C5)nc(OC[C@@]56CCCN5C[C@H](F)C6)nc4c3F)c12` (stereo partly drawn) [Example 71, 5-ethyl-6-fluoro-4-(8-fluoro-2-(((2R,7aS)-2-fluorohexahydro-1H-pyrrolizin-7a-yl)methoxy)-4-(1-oxa-6-azaspiro[3.5]nonan-6-yl)quinazolin-7-yl)naphthalen-2-ol], the inhibition at 0.1 µM was found to be 87% in experiment [1]; 82% in experiment [2]; 90% in experiment [3]; 38% in experiment [4]; 94% in experiment [5]; 65% in experiment [6].

The values above are taken from patent publication US20240025907A1, “QUINAZOLINE PAN-KRas INHIBITORS” (Mirati Therapeutics, Inc., priority 2022, published 2024).
